Measurements from patent US20240091183A1 (Syros Pharmaceuticals, Inc., priority 2021, published 2024).

Assay: population PK model and simulations of flat versus BSA-based dosing of tamibarotene
Design: species or system human
Conditions: population PK analysis of prior study, 6 mg/m2/day in 2 divided doses
Experimental: The dose and regimen used in a prior study (6 mg/m^2/day in 2 divided doses) were based on the dose and regimen approved in Japan for the treatment of APL. […] Based on this analysis, the fixed dosing regimens described herein, including the 6 mg BID flat dosing regimen, are expected to provide similar PK exposures compared to the 6 mg/m^2/day (in 2 divided doses) regimen used in the prior study.
A population PK model was developed using patient characteristics, and we assessed the impact of weight on drug clearance. Simulations were conducted to assess the performance of “flat” versus BSA-based dosing. Simulated AUC (area-under-the-curve) from the model was used to establish relationship of exposure with efficacy and safety; we analyzed exposure and achievement of CR/CRi and exposure with adverse events equal to or greater than those of grade 3.

## Tamibarotene
  association of body size with clearance: not significantly associated
